The record followed here is US6673965B1, “Hydroxamic acid derivative as inhibitor of the formation of soluble human CD23” (SmithKline Beecham P.L.C., priority 1999, dated 2004).

Values joined by “and” are separate entries in the source; they are usually repeats but may differ in a detail not shown here. Equal values may be shown once. Read-outs that look alike come from different tables or passages of the source.

The test system of data set [1] is TNFα release from human monocytes. The experiment in a line: Inhibition of release of TNFα from human monocytes stimulated by LPS. The conditions noted are these: at 10 uM; LPS 200 ng/ml, 18-20 hrs. Type of data set: cell-based. How it is done:
Procedure 3: The ability of test compounds to inhibit TNF release was investigated using the following procedure.
Assay for Inhibition of Release of TNFα From Human Monocytes Stimulated by Lipopolysaccharide (LPS) Endotoxin
Human monocytes, cultured in RPMI 1640 medium supplemented with 10% fetal calf serum, are centrifuged at 1000×g for 5 min and then resuspended in medium at 2×10^6 cells/ml. The cell suspension is aliquoted in 24 well plates, 1 ml per well. Compounds to be tested are dissolved in neat dimethyl sulfoxide (DMSO) and added to culture with the final DMSO concentration at 0.1%. Compounds are added to cells in triplicate wells. TNF α release is stimulated by addition of LPS to the cells at a final concentration of 200 ng/ml. Appropriate control cultures are set up in triplicates also. The plates are incubated for 18-20 hrs at 37° C., 5% CO2, then centrifuged at 1000×g for 5 min. A specific ELISA for human TNFα (SmithKline Beecham) is used to measure TNF levels in the cell-free culture supernatants.

Data set [2] can be described thus: i.v. pharmacokinetic parameters and oral bioavailability in male Cynomolgus monkeys. It is filed as in vivo. How it is done:
(§1) Procedure 4: The bioavailability of test compounds was investigated using the following bio-equivalence studies.
A Study to Estimate the i.v. Pharmacokinetic Parameters and Oral Bioavailability in Male Cynomolgus Monkeys
This study was conducted using a crossover design on two separate studv days, seven days apart. Three male Cynomolgus monkeys were used for this study. On both study days, a catheter was placed in a saphenous vein for collection of blood samples. On study day one, a catheter also was temporarily placed in a contralateral saphenous vein for i.v. infusion.
On study day one, each animal (fasted) received test compound (2.0 umol/kg target dose) as a 1-h intravenous infusion (4.0 mL/kg). The dose solution was prepared in 20% aqueous Encapsin® (pH=8.0) and contained 1% DMSO. Encapsin® (Cerestar USA Inc., Hammond, Ind.) is hydroxypropyl-beta-cyclodextrin, a cyclic oligosaccharide (7 glucose units) used to enhance solubility in the preparation of dose solutions that otherwise would require formulation using non-aqueous solvents.
On study day two, each animal (fasted) received test compound (6.0 umol/kg target dose) by oral gavage (8.0 mL/kg). The dose solution was prepared in 5% aqueous succinated porcine gelatin (pH=8.0) and contained 1% DMSO.
Blood samples were obtained from the femoral vein catheter; plasma was isolated by centrifugation. Plasma concentrations of test compound were quantified by LC/MS/MS (LLQ=10 ng/mL). Noncompartmental methods were used for pharmacokinetic analysis of plasma concentration versus time data.

Data set [3] is described as follows: i.v. pharmacokinetic parameters and oral bioavailability in male Beagle dogs. It is filed as in vivo. The conditions noted are these: Dog. The procedure:
as §1
A Study to Estimate the i.v. Pharmacokinetic Parameters and Oral Bioavailability in Male Beagle Dogs
This study was conducted using a crossover design on two separate study days, seven days apart. Three male Beagle dogs were used in this study. On each study day, a catheter was temporarily placed in a cephalic vein for blood sampling; on study day one only, a catheter was also temporarily placed in a saphenous vein for i.v. infusion.
On study day one, each animal received test compound (2.0 umol/kg target dose) as a 1-h intravenous infusion (4.0 mL/kg). The dose solution was prepared in 20% aqueous Encapsin® (pH=8.0) and contained 1% DMSO. Encapsin® (Cerestar USA Inc., Hammond, Ind.) is hydroxypropyl-beta-cyclodextrin, a cyclic oligosaccharide (7 glucose units) used to enhance solubility in the preparation of dose solutions that otherwise would require formulation using non-aqueous solvents.
On study day two, each animal received test compound (6.0 umol/kg target dose ) by oral gavage (8.0 mL/kg). The dose solution was prepared in 5% aqueous succinated porcine gelatin (pH=7.5) and contained 1% DMSO.
Plasma concentrations of test compound were quantified by LC/MSIMS (LLQ=10 ng/mL). Noncompartmental methods were used for analysis of plasma concentration versus time data.

Data set [4] can be described thus: i.v. pharmacokinetic parameters and oral bioavailability in male Sprague Dawley rat. The conditions noted are these: for half-life: rat, 2 mg/kg, two-compartment model. It is filed as in vivo. How it is done:
as §1
A Study to Estimate the i.v. Pharmacokinetic Parameters and Oral Bioavailability in Male Sprague Dawley Rat
This study was carried out using a crossover design on four separate study days. Three rats received surgically-implanted femoral vein catheters for infusion of test molecules at least three days prior to the start of the study. All doses in this study were prepared using crystalline test compound.
On study day one, the animals (fed) received test compound as a 30-min intravenous infusion at a target dosage of 4.0 umol/kg (4.0 mL/kg). The dose solution was prepared in 20% aqueous Encapsin® (pH=8.0) and contained 1% DMSO. Encapsin® (Cerestar USA Inc., Hammond, Ind.) is hydroxypropyl-beta-cyclodextrin, a cyclic oligosaccharide used to enhance solubility of compounds that otherwise would require formulation using non-aqueous solvents.
On study day two, the animals (fasted) received test compound as a solution at a target dosage of 8 umol/kg by oral gavage (16 mL/kg). The dose solution was prepared in 5% aqueous succinated porcine gelatin (pH=7.5) and contained 1% DMSO. Blood samples were collected from a lateral tail vein. A 25-uL aliquot of each whole blood sample was added to 25 uL of water and allowed to stand on ice for approximately 5 min to facilitate complete hemolysis; samples then were stored frozen until analvsis. Blood concentrations of test compound were quantified by LC/MS/MS (LLQ=10.0 ng/mL). […] Various compartmental models and weighting paradigms were employed; a two-compartment model with first-order elimination from the central compartment and iterative least squares weighting with a weight of 1/Y^2 provided the best fit to the observed data, according to standard model selection criteria (i.e., Akaike's Information Criterion, Schwartz Criterion, and sum of squared residuals). Pharmacokinetic parameters were calculated using the best-fit compartmental model; all calculations that required the use of AUC values (including bioavailability) were performed using the AUC recovered from noncompartmental analysis.

For data set [5], the system named is release of soluble CD23 from RPMI 8866 cell plasma membranes. The experiment in a line: RPMI 8866 cell membrane CD23 cleavage activity assay. Type of data set: biochemical, human. Conditions: RPMI 8866 membranes, 37° C., sCD23 by EIA; read-out: IC50 (50% inhibition of production of sCD23). The procedure:
Procedure 1: The ability of test compounds to inhibit the release of soluble CD23 was investigated by use of the following procedure.
RPMI 8866 Cell Membrane CD23 Cleavage Activity Assay
Plasma membranes from RPMI 8866 cells, a human Epstein-Barr virus transformed B-cell line (Sarfati et al., Immunology 60 [1987] 539-547) expressing high levels of CD23 are purified using an aqueous extraction method. Cells resuspended in homogenization buffer (20 mM HEPES pH 7.4, 150 mM NaCl, 1.5 mM MgCl2, 1 mM DTT) are broken by N2 cavitation in a Parr bomb and the plasma membrane fraction mixed with other membranes is recovered by centrifugation at 10,000×g. […]
The fractionated membranes are incubated at 37° C. for times up to 4 hrs to produce fragments of CD23 which are separated from the membrane by filtration in 0.2 micron Durapore filter plates (Millipore) after quenching the assay with 5 uM Preparation 1 from P 30994. sCD23 released from the membrane is determined using the EIA kit from The Binding Site (Birmingham, UK) or a similar one utilizing MHM6 anti-CD23 mAb [Rowe et al., Int. […] The amount of soluble CD23 made by 0.5 ug membrane protein in a total volume of 50 ul phosphate-buffered saline is measured by EIA and compared to the amount made in the presence of various concentrations of inhibitors. […]

Setting [6] is: Monkey, iv dose = 0.92 mg/kg, individual values, 0.92 mg/kg.
Where [7] appears, read: male, Beagle, plasma, iv dose = 0.96 mg/kg.
Setting [8] is: male, Sprague Dawley, whole blood, iv, i.v. dose = 2.0 mg/kg.

A word on the MRT: it is the average time that molecules of a dose stay in the body. One may read the Cmax as the highest concentration seen after dosing. The term IC50 denotes the concentration needed to halve the response being measured. Take `CNC(=O)[C@@H](NC(=O)[C@H](Cc1ccc2ccccc2c1)[C@H](OC(C)C)C(=O)NO)C(C)(C)C` [N′-[4-(N-hydroxyamino)-3S-isopropoxy-2R-(2-naphthylmethyl)succinyl]-S-tert-leucine methylamide]: the “effect on TNF release” value in data set [1] is “no effect”. Also, the “Oral F” value is 21.1% and 6.0% and 22.5% in data set [2] (Monkey, fasted, oral gavage 2.8 mg/kg Solution vs iv 0.92 mg/kg, individual values); 29.0 ± 3.7% in data set [3] (oral gavage, po dose = 2.7 mg/kg vs iv 0.96 mg/kg); 50.6 ± 10.6% in data set [4] (fasted, oral gavage 3.7 mg/kg solution vs i.v. 2.0 mg/kg). In addition, the MRT is 5.18 h and 0.992 h and 1.14 h in data set [2] (setting [6]); 1.07 h in data set [3] (setting [7]); 2.13 h in data set [4] (setting [8]). Besides, the T1/2 is 11.5 h and 1.42 h and 3.47 h in data set [2] (setting [6]); 4.2 h and 4.32 h and 0.817 h in data set [3] (iv dose = 0.96 mg/kg, individual values, 0.96 mg/kg). In data set [2] (setting [6]), the Vdss is 4.09 L/kg and 1.11 L/kg and 0.827 L/kg. Further, the Cmax in data set [2] (male, cynomolgus monkey, 1-h i.v. infusion, iv dose = 0.92 mg/kg, plasma) amounted to 1010 ± 175 ng/mL; in data set [3] (male, Beagle, 1-h i.v. infusion, iv dose = 0.96 mg/kg, plasma) it was 1410 ± 465 ng/mL; in data set [4] (male, Sprague Dawley, whole blood, iv, 30-min i.v. infusion, i.v. dose = 2.0 mg/kg, blood), 1340 ± 296 ng/mL. Further, the clearance in data set [2] (male, cynomolgus monkey, plasma, iv dose = 0.92 mg/kg) stood at 14.7 ± 3.6 mL/min/kg; in data set [3] (setting [7]), 10.6 ± 4.5 mL/min/kg; in data set [4] (setting [8]), 26.4 ± 8.5 mL/min/kg. In addition, the Vd in data set [3] (male, Beagle, plasma, iv dose = 0.96 mg/kg, read-out: Vdss) stood at 0.563 ± 0.204 L/kg; in data set [4] (male, Sprague Dawley, whole blood, iv, i.v. dose = 2.0 mg/kg, read-out: Vdss), 3.25 ± 1.7 L/kg. Further, the half-life came to 0.18 ± 0.0883 h in data set [4] (male, Sprague Dawley, whole blood, iv, i.v. dose = 2.0 mg/kg, read-out: T1/2 (α)) and 3.9 ± 2.32 h in data set [4] (male, Sprague Dawley, whole blood, iv, i.v. dose = 2.0 mg/kg, read-out: T1/2 (β)). In addition, the IC50 in data set [5] was determined as 60 nM.
